Reference: patent US9156792B2, “Retinamide and uses thereof” (UNIVERSITY OF MARYLAND, BALTIMORE, priority 2008, dated 2015)

What was measured:
[1] = test system: PC-3 prostate cancer cells; assay: MTT assay of PC-3 prostate cancer cell growth (proliferation) inhibition; type: cell-based, human; conditions: PC-3 cells; for GI50: Homo sapiens, 144 h, 6 days of treatment, read-out: GI50 Values (concentrations that cause 50% growth inhibition); for potency (growth inhibition) compared with VN/66-1: side by side with VN/66-1
Experimental: Data are means (SEM<±5%) of at least three independent experiments.
Compounds VNLG/145, VNLG/146, VNLG/147, VNLG/148, VNLG/152 and VNLG/153 were tested and evaluated for their ability to inhibit the growth (proliferation) of PC-3 prostate cancer cells using the MTT [3-(4,5-dimethylthiazol-2-yl)-2,5-diphenyltetrazolium bromide] assay (Gediyal et al. 2005). VN/66-1 of U.S. Pat. No. 7,265,143 was tested side by side for comparison. The GI50 values (concentrations that cause 50% growth inhibition) were determined from dose-response curves. See in FIG. 1 for VNLG/145.
The growth inhibitory experiments with the other compounds gave plots that were similar to FIG. 1.

RARα,β,γ receptors = conditions: compared with ATRA; cited from earlier work

| SMILES | GI50 [1] | potency (growth inhibition) compared with VN/66-1 [1] | also measured |
| --- | --- | --- | --- |
| CC1=C(/C=C/C(C)=C/C=C/C(C)=C/C(=O)Nc2cc(C(F)(F)F)ccc2C(F)(F)F)C(C)(C)CCC1n1ccnc1 (stereo not drawn) | 14.1 ± 7.12 µM |  |  |
| CC1=C(/C=C/C(C)=C/C=C/C(C)=C/C(=O)Nc2ncnc3[nH]cnc23)C(C)(C)CCC1n1ccnc1 (stereo not drawn) | 5.62 ± 0.37 µM |  |  |
| CC1=C(/C=C/C(C)=C/C=C/C(C)=C/C(=O)Nc2ccc(O)cc2)C(C)(C)CCC1n1ccnc1 (stereo not drawn) | 1.7 ± 0.05 µM |  |  |
| CC1=C(/C=C/C(C)=C/C=C/C(C)=C/C(=O)O)C(C)(C)CCC1n1ccnc1 (stereo not drawn) [VN/14-1] |  |  | binding and activation of RARα,β,γ receptors (RARα,β,γ receptors): binds and activates the RARα,β,γ receptors, albeit it is significantly less potent than ATRA |
| CC1=C(/C=C/C(C)=C/C=C/C(C)=C/C(=O)NC(C)(C)C)C(C)(C)CCC1n1ccnc1 (stereo not drawn) [VNLG/145] |  | potencies similar to VN/66-1 |  |
| CC1=C(/C=C/C(C)=C/C=C/C(C)=C/C(=O)Nc2ccccc2O)C(C)(C)CCC1n1ccnc1 (stereo not drawn) [VNLG/147] |  | potencies similar to VN/66-1 |  |
| CC1=C(/C=C/C(C)=C/C=C/C(C)=C/C(=O)Nc2ccc(F)cc2)C(C)(C)CCC1n1ccnc1 (stereo not drawn) [VNLG/152] |  | potencies better than VN/66-1 |  |
| CC1=C(/C=C/C(C)=C/C=C/C(C)=C/C(=O)Nc2ccccc2)C(C)(C)CCC1n1ccnc1 (stereo not drawn) [VNLG/153] |  | potencies better than VN/66-1 |  |
| CC1=C(/C=C/C(C)=C/C=C/C(C)=C/C(=O)NC(C)(C)C)C(C)(C)CCC1n1ccnc1 (stereo not drawn) [drawing 35] | 1.86 ± 0.05 µM |  |  |
| CC1=C(/C=C/C(C)=C/C=C/C(C)=C/C(=O)Nc2ccccc2O)C(C)(C)CCC1n1ccnc1 (stereo not drawn) [drawing 37] | 1.7 ± 0.07 µM |  |  |
| CC1=C(/C=C/C(C)=C/C=C/C(C)=C/C(=O)Nc2ccc(F)cc2)C(C)(C)CCC1n1ccnc1 (stereo not drawn) [drawing 39] | 0.61 ± 0.11 µM |  |  |
| CC1=C(/C=C/C(C)=C/C=C/C(C)=C/C(=O)Nc2ccccc2)C(C)(C)CCC1n1ccnc1 (stereo not drawn) [drawing 40] | 1.17 ± 0.05 µM |  |  |
